Data taken from ChEMBL document CHEMBL1201862, “PubChem BioAssay data set” (2004).
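Briefly, cells in 96-well plates were exposed to five compound concentrations for 48 h, and endpoints were estimated by linear interpolation. GI50 marks 50% less growth.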 Activity calls are given as the source filed them. No stated cut-off is given here; in the data, active = GI50 up to about 1.1 µM and inactive = higher.

Legend:
Test in all cases: NCI anticancer screen, dose series, 48 h
[1] = system: Malme-3M
[2] = system: Hs-578T
[3] = system: PC-3
[4] = system: HCT-15
[5] = system: BT-549
[6] = system: RPMI-8226
[7] = system: NCI-H23
[8] = system: MDA-N
[9] = system: NCI-H522
[10] = system: HT-29
[11] = system: NCI-H460
[12] = system: RXF 393
[13] = system: SK-MEL-28
[14] = system: OVCAR-4
[15] = system: M14
[16] = system: MDA-MB-435
[17] = system: EKVX
[18] = system: NCI-H226
[19] = system: NCI/ADR-RES
[20] = system: MCF7

Compound	GI50 [1]	GI50 [2]	GI50 [3]	GI50 [4] [µM]	GI50 [5]	GI50 [6]	GI50 [7]	GI50 [8]	GI50 [9]	GI50 [10]	GI50 [11]	GI50 [12]	GI50 [13]	GI50 [14]	GI50 [15]	GI50 [16]	GI50 [17]	GI50 [18]	GI50 [19]	GI50 [20]
CCCCC(=O)c1c(O)ccc2c(C)cc(=O)oc12	39.9 µM (inactive)	29 µM (inactive)	> 100 µM (inactive)	50.4	37.6 µM (inactive)	52 µM (inactive)	99.8 µM (inactive)	> 100 µM (inactive)	58.2 µM (inactive)	> 100 µM (inactive)	53.1 µM (inactive)	49.1 µM (inactive)	> 100 µM (inactive)	69.8 µM (inactive)	> 100 µM (inactive)	> 100 µM (inactive)	89.1 µM (inactive)	> 100 µM (inactive)	55.7 µM (inactive)	76.2 µM (inactive)
COc1ccccc1Cn1c2c(c3c(C(=O)NCCN(C)C)c(O)ccc31)C(=O)c1ccccc1C2=O	1.63 µM (inactive)	1.9 µM (inactive)	2.09 µM (inactive)	1.94	7.13 µM (inactive)	0.78 µM (active)	1.83 µM (inactive)	1.4 µM (inactive)	1.69 µM (inactive)	1.92 µM (inactive)	2.09 µM (inactive)	1.07 µM (active)	1.71 µM (inactive)	1.65 µM (inactive)	1.32 µM (inactive)	1.69 µM (inactive)	1.82 µM (inactive)	10.4 µM (inactive)	2.02 µM (inactive)	1.47 µM (inactive)
O=C1c2ccccc2CN1c1ccc(OCCN2CCCCC2)cc1	> 10 µM (inactive)	> 10 µM (inactive)	> 10 µM (inactive)	> 10	> 10 µM (inactive)	> 10 µM (inactive)	> 10 µM (inactive)	> 10 µM (inactive)	> 10 µM (inactive)	> 10 µM (inactive)	> 10 µM (inactive)	> 10 µM (inactive)	> 10 µM (inactive)	> 10 µM (inactive)	> 10 µM (inactive)	> 10 µM (inactive)	> 10 µM (inactive)	> 10 µM (inactive)	> 10 µM (inactive)	> 10 µM (inactive)
CC(C)(C)[Si](C)(C)OC1CCOC1(O)c1ccccn1 (stereo not given)	> 100 µM (inactive)	> 100 µM (inactive)	> 100 µM (inactive)	> 100	> 100 µM (inactive)	53.7 µM (inactive)	> 100 µM (inactive)	> 100 µM (inactive)	> 100 µM (inactive)	> 100 µM (inactive)	> 100 µM (inactive)	> 100 µM (inactive)	> 100 µM (inactive)	> 100 µM (inactive)	> 100 µM (inactive)	> 100 µM (inactive)	> 100 µM (inactive)	> 100 µM (inactive)	> 100 µM (inactive)	> 100 µM (inactive)
O=C(O)C(O)C(O)C(O)C(O)c1nc2ccccc2s1 (stereo not given)	15.5 µM (inactive)	16.7 µM (inactive)	15.3 µM (inactive)	27.9	26.3 µM (inactive)	25.9 µM (inactive)	23.2 µM (inactive)	17.1 µM (inactive)	12.3 µM (inactive)	21.2 µM (inactive)	16.3 µM (inactive)	18 µM (inactive)	20.3 µM (inactive)	20.3 µM (inactive)	17.8 µM (inactive)	17.3 µM (inactive)	15.4 µM (inactive)	29.8 µM (inactive)	31 µM (inactive)	17.1 µM (inactive)
COC(OC)[C@@H]1OC[C@@H](O)[C@@H]1n1cnc2c(N)ncnc21	> 100 µM (inactive)	> 100 µM (inactive)	> 100 µM (inactive)	> 100	> 100 µM (inactive)	> 100 µM (inactive)	> 100 µM (inactive)	> 100 µM (inactive)	> 100 µM (inactive)	> 100 µM (inactive)	> 100 µM (inactive)	> 100 µM (inactive)	> 100 µM (inactive)	> 100 µM (inactive)	> 100 µM (inactive)	> 100 µM (inactive)	> 100 µM (inactive)	> 100 µM (inactive)	> 100 µM (inactive)	> 100 µM (inactive)
C[C@]12C=CC(=O)C=C1CC[C@@H]1[C@@H]2C(=O)C[C@@]2(C)[C@H]1CC[C@]2(O)C(=O)CO [PREDNISONE]	> 100 µM (inactive)	> 100 µM (inactive)	> 100 µM (inactive)	> 100	> 100 µM (inactive)	> 100 µM (inactive)	> 100 µM (inactive)	> 100 µM (inactive)	> 100 µM (inactive)	> 100 µM (inactive)	> 100 µM (inactive)	> 100 µM (inactive)	> 100 µM (inactive)	> 100 µM (inactive)	> 100 µM (inactive)	> 100 µM (inactive)	> 100 µM (inactive)	> 100 µM (inactive)	> 100 µM (inactive)	> 100 µM (inactive)
COc1ccccc1/C=C/c1nc2ccccc2o1	> 10 µM (inactive)	> 10 µM (inactive)	> 10 µM (inactive)	> 10	> 10 µM (inactive)	> 10 µM (inactive)	> 10 µM (inactive)	> 10 µM (inactive)	> 10 µM (inactive)	> 10 µM (inactive)	> 10 µM (inactive)	> 10 µM (inactive)	> 10 µM (inactive)	> 10 µM (inactive)	> 10 µM (inactive)	> 10 µM (inactive)	> 10 µM (inactive)	> 10 µM (inactive)	> 10 µM (inactive)	> 10 µM (inactive)
Cc1cc(NC2=CC(=O)C(=O)c3ccccc32)no1	2.49 µM (inactive)	9.4 µM (inactive)	10.3 µM (inactive)	3.62	5.53 µM (inactive)	6.05 µM (inactive)	1.54 µM (inactive)	1.85 µM (inactive)	18.5 µM (inactive)	13 µM (inactive)	6.87 µM (inactive)	15.1 µM (inactive)	13.5 µM (inactive)	8.22 µM (inactive)	14.8 µM (inactive)	1.88 µM (inactive)	16.1 µM (inactive)	17.6 µM (inactive)	3.87 µM (inactive)	2.81 µM (inactive)
CCC(=O)C(c1ccccc1)c1ccccn1 (stereo not given)	> 100 µM (inactive)	> 100 µM (inactive)	> 100 µM (inactive)	> 100	> 100 µM (inactive)	> 100 µM (inactive)	> 100 µM (inactive)	> 100 µM (inactive)	> 100 µM (inactive)	> 100 µM (inactive)	> 100 µM (inactive)	> 100 µM (inactive)	> 100 µM (inactive)	> 100 µM (inactive)	> 100 µM (inactive)	> 100 µM (inactive)	> 100 µM (inactive)	> 100 µM (inactive)	> 100 µM (inactive)	> 100 µM (inactive)
COC(=O)[C@]1(c2cc3ccccc3n2S(=O)(=O)c2ccccc2)CC2CN(C(=O)OCc3ccccc3)C1C1OC(C)(C)OC21 (stereo not given in full)	2.09 µM (inactive)	> 100 µM (inactive)	> 100 µM (inactive)	> 100	> 100 µM (inactive)	60.1 µM (inactive)	> 100 µM (inactive)	> 100 µM (inactive)	1.31 µM (inactive)	> 100 µM (inactive)	> 100 µM (inactive)	> 100 µM (inactive)	1.26 µM (inactive)	> 100 µM (inactive)	80.5 µM (inactive)	> 100 µM (inactive)	> 100 µM (inactive)	93.1 µM (inactive)	> 100 µM (inactive)	> 100 µM (inactive)
COc1cc2cc(C(=O)N3CC(CCl)c4c3cc([N+](C)(C)Cc3ccc([N+](=O)[O-])n3C)c3ccccc43)[nH]c2c(OC)c1OC (stereo not given)	3.79 µM (inactive)	6.76 µM (inactive)	0.184 µM (active)	1.58	2.51 µM (inactive)	0.316 µM (active)	0.472 µM (active)	2.13 µM (inactive)	0.0638 µM (active)	1.29 µM (inactive)	0.327 µM (active)	0.0107 µM (active)	2.33 µM (inactive)	1.88 µM (inactive)	3.61 µM (inactive)	3.79 µM (inactive)	2.72 µM (inactive)	1.87 µM (inactive)	0.849 µM (active)	1.46 µM (inactive)
CCOC(=O)C1C(=O)CC(C)(O)C(C(=O)OCC)C1c1ccc(OC)cc1 (stereo not given)	> 100 µM (inactive)	> 100 µM (inactive)	> 100 µM (inactive)	> 100	> 100 µM (inactive)	> 100 µM (inactive)	> 100 µM (inactive)	> 100 µM (inactive)	> 100 µM (inactive)	> 100 µM (inactive)	> 100 µM (inactive)	> 100 µM (inactive)	> 100 µM (inactive)	> 100 µM (inactive)	> 100 µM (inactive)	> 100 µM (inactive)	> 100 µM (inactive)	1.6 µM (inactive)	> 100 µM (inactive)	> 100 µM (inactive)
Cc1nc(C)c(N2CCN(Cc3ccccc3)CC2)c(O)n1	> 100 µM (inactive)	> 100 µM (inactive)	> 100 µM (inactive)	> 100	> 100 µM (inactive)	> 100 µM (inactive)	> 100 µM (inactive)	> 100 µM (inactive)	> 100 µM (inactive)	> 100 µM (inactive)	> 100 µM (inactive)	> 100 µM (inactive)	> 100 µM (inactive)	> 100 µM (inactive)	> 100 µM (inactive)	> 100 µM (inactive)	> 100 µM (inactive)	> 100 µM (inactive)	> 100 µM (inactive)	> 100 µM (inactive)
